Source: the NIST ThermoML archive (doi:10.1016/j.jct.2015.03.002)
± gives the expanded uncertainty stated by the source.

Settings: Liquid
[1] = 303.15 K, 10000 kPa, Concentric cylinders viscometry
[2] = 303.15 K, 10000 kPa, Falling or rolling sphere viscometry
[3] = 303.15 K, 15000 kPa, Concentric cylinders viscometry
[4] = 303.15 K, 15000 kPa, Falling or rolling sphere viscometry
[5] = 303.15 K, 25000 kPa, Concentric cylinders viscometry
[6] = 303.15 K, 25000 kPa, Falling or rolling sphere viscometry
[7] = 303.15 K, 50000 kPa, Concentric cylinders viscometry
[8] = 303.15 K, 50000 kPa, Falling or rolling sphere viscometry
[9] = 303.15 K, 75000 kPa, Concentric cylinders viscometry
[10] = 303.15 K, 75000 kPa, Falling or rolling sphere viscometry
[11] = 303.15 K, 100000 kPa, Falling or rolling sphere viscometry
[12] = 303.15 K, 125000 kPa, Falling or rolling sphere viscometry
[13] = 303.15 K, 150000 kPa, Falling or rolling sphere viscometry
[14] = 313.15 K, 10000 kPa, Falling or rolling sphere viscometry
[15] = 313.15 K, 15000 kPa, Falling or rolling sphere viscometry
[16] = 313.15 K, 25000 kPa, Falling or rolling sphere viscometry
[17] = 313.15 K, 50000 kPa, Concentric cylinders viscometry
[18] = 313.15 K, 50000 kPa, Falling or rolling sphere viscometry
[19] = 313.15 K, 75000 kPa, Concentric cylinders viscometry
[20] = 313.15 K, 75000 kPa, Falling or rolling sphere viscometry
[21] = 313.15 K, 100000 kPa, Falling or rolling sphere viscometry
[22] = 313.15 K, 125000 kPa, Falling or rolling sphere viscometry
[23] = 313.15 K, 150000 kPa, Falling or rolling sphere viscometry
[24] = 323.15 K, 10000 kPa, Falling or rolling sphere viscometry
[25] = 323.15 K, 15000 kPa, Falling or rolling sphere viscometry
[26] = 323.15 K, 25000 kPa, Falling or rolling sphere viscometry
[27] = 323.15 K, 50000 kPa, Falling or rolling sphere viscometry
[28] = 323.15 K, 75000 kPa, Falling or rolling sphere viscometry
[29] = 323.15 K, 100000 kPa, Falling or rolling sphere viscometry
[30] = 323.15 K, 125000 kPa, Falling or rolling sphere viscometry
[31] = 323.15 K, 150000 kPa, Falling or rolling sphere viscometry
[32] = 333.15 K, 10000 kPa, Falling or rolling sphere viscometry
[33] = 333.15 K, 15000 kPa, Falling or rolling sphere viscometry
[34] = 333.15 K, 25000 kPa, Falling or rolling sphere viscometry
[35] = 333.15 K, 50000 kPa, Falling or rolling sphere viscometry
[36] = 333.15 K, 75000 kPa, Falling or rolling sphere viscometry
[37] = 333.15 K, 100000 kPa, Falling or rolling sphere viscometry
[38] = 333.15 K, 125000 kPa, Falling or rolling sphere viscometry
[39] = 333.15 K, 150000 kPa, Falling or rolling sphere viscometry
[40] = 343.15 K, 10000 kPa, Falling or rolling sphere viscometry
[41] = 343.15 K, 15000 kPa, Falling or rolling sphere viscometry
[42] = 343.15 K, 25000 kPa, Falling or rolling sphere viscometry
[43] = 343.15 K, 50000 kPa, Falling or rolling sphere viscometry
[44] = 343.15 K, 75000 kPa, Falling or rolling sphere viscometry
[45] = 343.15 K, 100000 kPa, Falling or rolling sphere viscometry
[46] = 343.15 K, 125000 kPa, Falling or rolling sphere viscometry
[47] = 343.15 K, 150000 kPa, Falling or rolling sphere viscometry
[48] = 353.15 K, 10000 kPa, Falling or rolling sphere viscometry
[49] = 353.15 K, 15000 kPa, Falling or rolling sphere viscometry
[50] = 353.15 K, 25000 kPa, Falling or rolling sphere viscometry
[51] = 353.15 K, 50000 kPa, Falling or rolling sphere viscometry
[52] = 353.15 K, 75000 kPa, Falling or rolling sphere viscometry
[53] = 353.15 K, 100000 kPa, Falling or rolling sphere viscometry
[54] = 353.15 K, 125000 kPa, Falling or rolling sphere viscometry
[55] = 353.15 K, 150000 kPa, Falling or rolling sphere viscometry

SMILES: CCCC[N+]1(C)CCCC1.FC(F)(F)C(F)(F)[P-](F)(F)(F)(C(F)(F)C(F)(F)F)C(F)(F)C(F)(F)F
- viscosity [1]: 198.9 ± 21 mPa·s
- viscosity [2]: 189.5 ± 10 mPa·s
- viscosity [3]: 221.8 ± 23 mPa·s
- viscosity [4]: 212.4 ± 12 mPa·s
- viscosity [5]: 273.1 ± 29 mPa·s
- viscosity [6]: 265.5 ± 17 mPa·s
- viscosity [7]: 465.5 ± 50 mPa·s
- viscosity [8]: 454.7 ± 35 mPa·s
- viscosity [9]: 791.6 ± 86 mPa·s
- viscosity [10]: 765.1 ± 70 mPa·s
- viscosity [11]: 1274 ± 140 mPa·s
- viscosity [12]: 2111 ± 270 mPa·s
- viscosity [13]: 3485 ± 500 mPa·s
- viscosity (313.15 K, 10000 kPa, Concentric cylinders viscometry): 118.9 ± 13 mPa·s
- viscosity [14]: 113.5 ± 5 mPa·s
- viscosity (313.15 K, 15000 kPa, Concentric cylinders viscometry): 131.3 ± 14 mPa·s
- viscosity [15]: 124.7 ± 5.7 mPa·s
- viscosity (313.15 K, 25000 kPa, Concentric cylinders viscometry): 162.6 ± 17 mPa·s
- viscosity [16]: 150.6 ± 7.4 mPa·s
- viscosity [17]: 263.5 ± 28 mPa·s
- viscosity [18]: 241.3 ± 15 mPa·s
- viscosity [19]: 434.8 ± 47 mPa·s
- viscosity [20]: 386.8 ± 28 mPa·s
- viscosity [21]: 620.3 ± 53 mPa·s
- viscosity [22]: 995.1 ± 100 mPa·s
- viscosity [23]: 1597 ± 190 mPa·s
- viscosity [24]: 73.4 ± 2.8 mPa·s
- viscosity [25]: 80 ± 3.1 mPa·s
- viscosity [26]: 94.9 ± 3.9 mPa·s
- viscosity [27]: 145.4 ± 7.1 mPa·s
- viscosity (323.15 K, 75000 kPa, Concentric cylinders viscometry): 234.7 ± 33 mPa·s
- viscosity [28]: 222.6 ± 13 mPa·s
- viscosity [29]: 340.5 ± 24 mPa·s
- viscosity [30]: 520.9 ± 42 mPa·s
- viscosity [31]: 797 ± 75 mPa·s
- viscosity [32]: 48 ± 1.7 mPa·s
- viscosity [33]: 52 ± 1.9 mPa·s
- viscosity [34]: 61 ± 2.2 mPa·s
- viscosity [35]: 90.7 ± 3.6 mPa·s
- viscosity [36]: 134.3 ± 6.3 mPa·s
- viscosity [37]: 198.1 ± 11 mPa·s
- viscosity [38]: 291.7 ± 19 mPa·s
- viscosity [39]: 429.1 ± 32 mPa·s
- viscosity [40]: 33.9 ± 1.2 mPa·s
- viscosity [41]: 36.5 ± 1.3 mPa·s
- viscosity [42]: 42.2 ± 1.5 mPa·s
- viscosity [43]: 60.5 ± 2.2 mPa·s
- viscosity [44]: 86.9 ± 3.4 mPa·s
- viscosity [45]: 124.5 ± 5.7 mPa·s
- viscosity [46]: 178.5 ± 9.5 mPa·s
- viscosity [47]: 255.8 ± 16 mPa·s
- viscosity [48]: 24.7 ± 0.9 mPa·s
- viscosity [49]: 26.6 ± 1 mPa·s
- viscosity [50]: 30.7 ± 1.1 mPa·s
- viscosity [51]: 43.4 ± 1.6 mPa·s
- viscosity [52]: 60.6 ± 2.2 mPa·s
- viscosity [53]: 84.1 ± 3.3 mPa·s
- viscosity [54]: 116 ± 5.1 mPa·s
- viscosity [55]: 159.3 ± 8.1 mPa·s

SMILES: CCCC[N+]1(C)CCCC1.O=S(=O)([O-])C(F)(F)F [1-butyl-1-methylpyrrolidinium trifluoromethanesulfonate]
- viscosity [1]: 147.2 ± 20 mPa·s
- viscosity [2]: 144.8 ± 7.1 mPa·s
- viscosity [3]: 158.4 ± 21 mPa·s
- viscosity [4]: 154.3 ± 7.8 mPa·s
- viscosity [5]: 181.8 ± 19 mPa·s
- viscosity [6]: 174.9 ± 9.3 mPa·s
- viscosity [7]: 249.5 ± 26 mPa·s
- viscosity [8]: 236.9 ± 14 mPa·s
- viscosity [9]: 341.1 ± 36 mPa·s
- viscosity [10]: 317.7 ± 22 mPa·s
- viscosity [11]: 422.8 ± 32 mPa·s
- viscosity [12]: 559.5 ± 46 mPa·s
- viscosity [13]: 737.7 ± 67 mPa·s
- viscosity [14]: 89.2 ± 3.6 mPa·s
- viscosity [15]: 94.8 ± 4 mPa·s
- viscosity [16]: 106.9 ± 4.7 mPa·s
- viscosity [17]: 148.1 ± 16 mPa·s
- viscosity [18]: 142.7 ± 7 mPa·s
- viscosity [19]: 202.2 ± 22 mPa·s
- viscosity [20]: 188.1 ± 10 mPa·s
- viscosity [21]: 245.4 ± 15 mPa·s
- viscosity [22]: 318.1 ± 22 mPa·s
- viscosity [23]: 410.1 ± 30 mPa·s
- viscosity [24]: 58.9 ± 2.2 mPa·s
- viscosity [25]: 62.5 ± 2.3 mPa·s
- viscosity [26]: 70.2 ± 2.7 mPa·s
- viscosity [27]: 92.3 ± 3.8 mPa·s
- viscosity [28]: 119.5 ± 5.4 mPa·s
- viscosity [29]: 153 ± 7.7 mPa·s
- viscosity [30]: 194.1 ± 11 mPa·s
- viscosity [31]: 244.7 ± 15 mPa·s
- viscosity [32]: 41.7 ± 1.6 mPa·s
- viscosity [33]: 43.9 ± 1.6 mPa·s
- viscosity [34]: 48.6 ± 1.8 mPa·s
- viscosity [35]: 62.3 ± 2.3 mPa·s
- viscosity [36]: 79 ± 3.1 mPa·s
- viscosity [37]: 99.6 ± 4.2 mPa·s
- viscosity [38]: 124.9 ± 5.8 mPa·s
- viscosity [39]: 156 ± 7.9 mPa·s
- viscosity [40]: 29.9 ± 1.1 mPa·s
- viscosity [41]: 31.4 ± 1.2 mPa·s
- viscosity [42]: 34.7 ± 1.3 mPa·s
- viscosity [43]: 44.2 ± 1.6 mPa·s
- viscosity [44]: 55.7 ± 2 mPa·s
- viscosity [45]: 69.6 ± 2.6 mPa·s
- viscosity [46]: 86.4 ± 3.5 mPa·s
- viscosity [47]: 106.8 ± 4.6 mPa·s
- viscosity [48]: 22.5 ± 0.8 mPa·s
- viscosity [49]: 23.7 ± 0.9 mPa·s
- viscosity [50]: 26.1 ± 1 mPa·s
- viscosity [51]: 32.7 ± 1.2 mPa·s
- viscosity [52]: 40.5 ± 1.5 mPa·s
- viscosity [53]: 49.4 ± 1.8 mPa·s
- viscosity [54]: 59.9 ± 2.2 mPa·s
- viscosity [55]: 72 ± 2.8 mPa·s

SMILES: CC(C)CCCC(C)CCCC(C)CCCCC(C)CCCC(C)CCCC(C)C (configuration not stated) [2,6,10,15,19,23-hexamethyltetracosane]
- viscosity [2]: 27.4 ± 1 mPa·s
- viscosity [4]: 30.8 ± 1.1 mPa·s
- viscosity [6]: 38.2 ± 1.4 mPa·s
- viscosity [8]: 62.7 ± 2.3 mPa·s
- viscosity [10]: 98.5 ± 4.1 mPa·s
- viscosity [11]: 150.8 ± 7.4 mPa·s
- viscosity [12]: 227.4 ± 13 mPa·s
- viscosity [13]: 339.5 ± 23 mPa·s
- viscosity [14]: 18.4 ± 0.7 mPa·s
- viscosity [15]: 20.4 ± 0.7 mPa·s
- viscosity [16]: 24.8 ± 0.9 mPa·s
- viscosity [18]: 39.1 ± 1.4 mPa·s
- viscosity [20]: 59.5 ± 2.2 mPa·s
- viscosity [21]: 88.7 ± 3.5 mPa·s
- viscosity [22]: 130.3 ± 6.1 mPa·s
- viscosity [23]: 189.8 ± 10 mPa·s
- viscosity [24]: 13 ± 0.5 mPa·s
- viscosity [25]: 14.3 ± 0.5 mPa·s
- viscosity [26]: 17.1 ± 0.6 mPa·s
- viscosity [27]: 26.1 ± 1 mPa·s
- viscosity [28]: 38.7 ± 1.4 mPa·s
- viscosity [29]: 56.3 ± 2 mPa·s
- viscosity [30]: 80.9 ± 3.1 mPa·s
- viscosity [31]: 115.4 ± 5.1 mPa·s
- viscosity [32]: 9.2 ± 0.3 mPa·s
- viscosity [33]: 10.1 ± 0.4 mPa·s
- viscosity [34]: 12.1 ± 0.4 mPa·s
- viscosity [35]: 18.2 ± 0.7 mPa·s
- viscosity [36]: 26.5 ± 1 mPa·s
- viscosity [37]: 37.8 ± 1.4 mPa·s
- viscosity [38]: 53.2 ± 1.9 mPa·s
- viscosity [39]: 74 ± 2.8 mPa·s
- viscosity [40]: 7 ± 0.3 mPa·s
- viscosity [41]: 7.6 ± 0.3 mPa·s
- viscosity [42]: 9 ± 0.3 mPa·s
- viscosity [43]: 13.3 ± 0.5 mPa·s
- viscosity [44]: 19 ± 0.7 mPa·s
- viscosity [45]: 26.7 ± 1 mPa·s
- viscosity [46]: 37 ± 1.3 mPa·s
- viscosity [47]: 50.8 ± 1.8 mPa·s
- viscosity [48]: 5.4 ± 0.2 mPa·s
- viscosity [49]: 5.9 ± 0.2 mPa·s
- viscosity [50]: 6.9 ± 0.3 mPa·s
- viscosity [51]: 10.1 ± 0.4 mPa·s
- viscosity [52]: 14.2 ± 0.5 mPa·s
- viscosity [53]: 19.5 ± 0.7 mPa·s
- viscosity [54]: 26.4 ± 1 mPa·s
- viscosity [55]: 35.5 ± 1.3 mPa·s
